assay: gradient 5% acetonitrile 3 min, to 50% in 2 min, to 85% in 15 min, held 3 min, 100 µL/min; conditions: column: Zorbax Extend-C18 2.1 x 50 mm; eluents: water / acetonitrile, 0.1% formic acid
Outline: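 Data were gathered over 3 months by HPLC coupled to a quadrupole time-of-flight mass spectrometer, operated in positive and negative ionization mode. Mixtures of ~100 pure standards ran on a Zorbax Extend-C18 column (2.1 × 50 mm, 1.8 μm) at 100 μL/min, with water and acetonitrile each containing 0.1% formic acid and dead and dwell volumes of 40 μL and 900 μL. Retention time was read from adduct peaks picked by computer and checked manually.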

SMILES	RP-LC retention time [s]
O=C1Nc2cc(C(=O)N3CCN(C(=O)c4ccco4)CC3)ccc2N2CCCCC12 (stereo not given)	677
CC1=NS(=O)(=O)N(C)C=C1C(=O)OCc1c(F)cccc1Cl	968
Cc1ccc(-n2nnc(-c3noc(C)n3)c2C)cc1	836
O=C(c1csc(-c2ccc(N3CCCC3)nc2)n1)N1CCCCC1	613
CC[C@@H]1C(=O)N(C)c2cnc(Nc3ccc(C(=O)NC4CCN(C)CC4)cc3OC)nc2N1C1CCCC1	624
COCCCNC(=O)N1CCN(Cc2nc3cccnc3n2-c2cc(C)cc(C)c2)CC1	650
Cc1ccc(Nc2cc(-n3ccnc3)ncn2)cc1	651
CCOc1ccc(C(=O)N2CCN(c3cc(CC)n4cnnc4n3)CC2)cc1	742
CCn1cc(-c2nc(CC(=O)NC3CCCCCC3)cs2)c2cccnc21	1050
Cc1nnc(N2CCCC(C(=O)NCCCN3CCCC3=O)C2)c2nn(-c3ccccc3)c(C)c12 (stereo not given)	616
O=C1NCCN2CC3(CCN(S(=O)(=O)c4cccc5cccnc45)CC3)CC12 (stereo not given)	581
O=C(c1c(OCC2CC2)cc(=O)n2c1CCCCC2)N1CCN(c2ccccn2)CC1	563
O=C1Nc2ccccc2NC12CCOCC2	631
COc1ccc(CC(=O)N2CCn3c(C)nnc3C2)cc1OC	579
O=C([C@@H]1C[C@H](F)CN1S(=O)(=O)Cc1ccc(Cl)cc1)N1CCCCC1	881
Cc1ccc(S(=O)(=O)N2C[C@H]3CN(C(=O)NCCc4ccccc4)C[C@@H](C2)O3)cc1	834
CCOCCCNC(=O)NC1CCN(c2nc3ccccc3n(C)c2=O)CC1	690
Cc1csc(-c2cc(S(=O)(=O)NC3CCCC3)c(C)n2C)n1	970
CC(C(=O)NCCN1CCOCC1)C1CCN(C(=O)c2cc3cc(Cl)ccc3[nH]2)CC1 (stereo not given)	589
CCCNC(=O)C1CCCN(c2ccc(SCC(=O)NCc3ccc(C)cc3)nn2)C1 (stereo not given)	656
COc1ccc(CN2C(=O)[C@H](OC)[C@@H]2C2=CCN(C(=O)C3(c4ccccc4)CC3)CC2)cc1	870

SMILES	RP-LC retention time [s]
CC1OC(Oc2c(-c3cc(O)c(O)c(O)c3)oc3cc(O)cc(O)c3c2=O)C(O)C(O)C1O (stereo not given)	651
CC1(C)CN(C(=O)C2CC2)c2ccc(S(=O)(=O)N3CCN(c4ccccn4)CC3)cc21	692
CCC1CCCCN1CCCNC(=O)Cn1c(=O)c2cccn2c2ccc(F)cc21 (stereo not given)	641
O=C([C@@H]1C[C@H](F)CN1C(=O)Nc1ccccc1Cl)N1CCCCC1	732
CCCCS(=O)(=O)c1cc2c(cc1NC(=O)c1c(F)cccc1F)n(C)c(=O)n2C	800
CCCc1noc(CN2N=C(C(=O)N3CCC(C)CC3)S(=O)(=O)c3ccc(C)cc32)n1	1010
COc1cc(OC)c(NC(=O)NC2CCN(c3nc4ccccc4n(C)c3=O)CC2)cc1Cl	945
CCN1CCN(CCNC(=O)C2CCN(c3nccnc3Sc3ccc(C)cc3)CC2)CC1	639
CCc1cc(C2CCCN2C(=O)Nc2ccc(C(=O)OC)cc2)on1 (stereo not given)	801
O=C(NC1CCN(c2cc(-c3ccc(Cl)cc3)[nH]n2)CC1)c1ccc2nc[nH]c2c1	634
Cc1cc(C)c2c(n1)nn1c(N3CCN(c4ccccn4)CC3)cc(C)nc21	561
N#Cc1ccc(C(=O)Nc2cnn(-c3ncc(N4CCCC4)cn3)c2)cc1	798
COC(=O)c1ccc(Cl)cc1NC(=O)N1CCCn2nc(-c3cccnc3)cc2C1	758
CCOC(=O)c1cn(Cc2ccc(C)cc2)c2nc(C)ccc2c1=O	861
COc1ccc(-c2nc(Nc3c(C)n[nH]c3C)sc2C)cc1	630
CCCc1c(C(=O)O)nnn1Cc1ccccc1Cl	796
Cc1cnc(CC2CCN(C(=O)C(C)C)C2)n1C(C)C (stereo not given)	578
COCCNC(=O)c1cc2c(n(-c3ccc(F)cc3)c1=O)CCCC2=O	701
O=C(Nc1ccc(Cl)cc1C(F)(F)F)N1CCC(n2cnnc2C2CC2)C1 (stereo not given)	704
Cn1cc(S(=O)(=O)N2CCC(C(=O)NC3CCCCCC3)CC2)cc1C(=O)N1CCCC1	770

Next, values leading:

RP-LC retention time [s]	SMILES
661	COc1cc(C(C)=O)ccc1OCC(=O)NCCn1cnc(-c2ccc(F)cc2)cc1=O
866	O=C(CCn1nnc2cc(-c3noc(COc4ccc(Cl)cc4)n3)ccc21)N1CCOCC1
702	O=C(NCC(c1cccnc1)N1CCc2ccccc21)C(=O)Nc1ccccc1[N+](=O)[O-] (stereo not given)
575	Cc1cccc(CN2CCc3nc(C)n(CC(=O)Nc4ccc5c(c4)OCO5)c(=O)c3C2)c1
998	O=C(Nc1ccccc1C(F)(F)F)C1CCCN(C(=O)Cc2cccc3ccccc23)C1 (stereo not given)
755	Cc1ccc(-c2nc3ncccn3c2NCc2ccc(F)cc2)cc1
784	Cn1c(=O)sc2cc(S(=O)(=O)N3CCC(C(=O)NCc4ccc5c(c4)OCO5)CC3)ccc21
858	CC1=C(c2ccc(C)cc2)S(=O)(=O)N=C1N1CCC(NC(=O)Cc2cccs2)CC1
722	CCC(=O)Nc1ccc(-n2cnc(C(=O)NC(C)c3ccccc3)c2)nc1 (stereo not given)
662	Cc1ccc(CNC(=O)Nc2c(-c3ccccc3)nc3ccccn23)cc1
1080	CSc1cccc(NC(=O)N2CCCC2c2nc(-c3cccc(C)c3)no2)c1 (stereo not given)
893	COc1cc2c(cc1CNC(=O)Cn1cc(C(=O)C(C)C)c3ccccc31)OCCCO2
797	Nc1sc(SCC(=O)Nc2ccc3c(c2)OCO3)nc1-c1ccccc1
647	Cc1cc(C)n2nc(SCC(=O)NCc3cccs3)nc2n1
1060	Cc1ccc(Cc2nc(C3CC(=O)N(c4ccc(Cl)cc4)C3)no2)cc1 (stereo not given)
659	CCOC(=O)c1csc(NC(=O)C2CCCN(c3ccc(-c4ccccc4)nn3)C2)n1 (stereo not given)
642	CCc1ccc2oc(C(=O)NCC(c3ccccc3)N(C)C)cc(=O)c2c1 (stereo not given)
676	CN(CCCNC(=O)C1CCCN(C(=O)c2cccc(Cl)c2)C1)c1ccccc1 (stereo not given)
1050	O=C(Cn1ccc2ccc(N3CCOCC3)nc21)N1CCC(Cc2ccccc2)CC1
1170	CCn1nccc1-c1cccc(-c2noc(-c3cccc(OC)c3OC)n2)c1
1280	Clc1cccc(-c2noc(Cc3nc(-c4ccccc4)cs3)n2)c1
719	Cc1ccc(Nc2c(-c3ccc(O)cc3)nc3ncccn23)c(C)c1
870	CN1C(=O)c2cccnc2Sc2cc(NC(=O)c3ccc(Cl)s3)ccc21
829	COC(=O)c1ccc(NC(=O)Cn2cccc(-c3nc(-c4ccccc4)no3)c2=O)cc1

— the METLIN SMRT retention time set (Domingo-Almenara et al. 2019)
